Results reported in patent US6479548B2, “Substituted stilbenes as glucose uptake enhancers” (Telik, Inc., priority 2000, dated 2002).

What was measured:
[1] = biological target: T1, complete β-kinase domain of the human insulin receptor (CKD) (Homo sapiens, UniProt P06213); experiment: 32P-CKD autophosphorylation assay; type: biochemical; settings: compound at 10 μM, phosphorylation of CKD expressed as % of the vehicle level; for activity at 10 µM: 10 min, read-out: Activity (% vs. control)
T1 construct: The complete β-kinase domain of the human insulin receptor (CKD); made in house
T1 sequence (P06213 1023-1298 limits assumed): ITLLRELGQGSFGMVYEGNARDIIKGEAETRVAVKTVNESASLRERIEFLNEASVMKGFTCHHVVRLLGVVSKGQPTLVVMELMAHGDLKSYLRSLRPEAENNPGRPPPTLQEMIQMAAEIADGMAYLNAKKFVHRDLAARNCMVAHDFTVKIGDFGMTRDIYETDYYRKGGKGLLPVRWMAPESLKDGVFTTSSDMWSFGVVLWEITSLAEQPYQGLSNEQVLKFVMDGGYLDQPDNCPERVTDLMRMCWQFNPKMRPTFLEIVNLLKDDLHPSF
Protocol: The complete β-kinase domain of the human insulin receptor (CKD) was expressed in, and purified from, baculovirus. CKD (4.0 μg/ml), in a solution of 29 mM HEPES (pH 7.6), 0.05% Triton X-100, 10 mM MgCl2, 2 mM MnCl2 (50 μl final volume), is combined with 50 μM ATP, and 5 μCi ^32P-ATP (3000 Ci/mmol).

[2] = tested on: 3T3 L1 fibroblasts; experiment: Glucose transport activity (14C-2-deoxy-D-glucose uptake); type: cell-based; settings: concentration producing increase in glucose transport that is 50% of the response of 100 nM insulin (5.6 nM insulin as lower bound), tested 1 μM to 56 μM
Protocol: 3T3 L1 fibroblasts (ATCC) were grown in Dulbecco's modified Eagle's medium (DMEM) with 10% fetal bovine serum (FBS). The cells were plated at a density of 3×10^4 cells/well in 24-well plates. Two days after confluence was reached, the cells were treated for 3 days with 0.5 mM isobutylmethylxanthine (IBMX), 1 μM dexamethasone, and 1.7 μM insulin. The cells were then transferred to DMEM with 1.7 μM insulin for 2 more days. The cells were maintained in DMEM with 10% FBS for an additional 4 days. Finally, the cells were serum-starved overnight in 0. 1% bovine serum albumin (BSA) in DMEM. The following day, the medium was replaced with 150 mM NaCl, 1.7 mM KCl, 0.9 mM CaCl2, K2HPO4 (pH 7.4), to which was added either the experimental compound or its vehicle (DMSO). Insulin or its vehicle (0.01% BSA) was diluted in the assay buffer (containing test compound or vehicle, respectively) to a final concentration of 5.6 nM. After incubation for 30 min at 37° C., 5 μCi/ml ^14C-2-deoxy-D-glucose was added, and the incubation was continued for an additional 30 min at 37° C. The cells were then washed 3 times with ice-cold PBS/20 mM glucose and lysed in 250 μl of lysis buffer (50 mM HEPES pH 7.6, 1% Triton X-100) for 30 min at room temperature. Radioactivity in the lysate was quantified by scintillation counting.
Once ^14C-2-deoxy-D-glucose is transported into the cell, it is not released. Glucose transport is, therefore, proportional to the amount of radioactivity in the lysate. […] The concentration of compound necessary to produce an increase in glucose transport that is 50% of the response of 100 nM insulin (using 5.6 nM insulin as the lower bound) was calculated as the EC50 (effective concentration).

Compound	Activity (% vs. control) [1] [%]	EC50 [2] [µM]	activity at 10 µM [1] [%]	EC50 ([2]; Mus musculus, 3T3-L1) [µM]
5-((1E)-2-phenylvinyl)-2-({4-[(4-carboxyphenyl)-N-methylcarbonylamnino]phenyl}-N-methylcarbonylamino)benzoic acid [Compound 20]	112	109	–	–
CNc1ccc(C(=O)Nc2ccc(/C=C/c3ccc(C(=O)O)cc3)cc2C(=O)O)cc1 [Compound 23, 5-[(1E)-2-(4-carboxyphenyl)vinyl]-2-{[4-(methylamino)phenyl]carbonylamino}-benzoic acid]	–	–	112	98
O=C(O)Cc1ccc(/C=C/c2ccc(NC(=O)c3ccccc3C(=O)O)cc2)cc1 [Compound 24, 2-[N-(4-{(1E)-2-[4-(carboxymethyl)phenyl]vinyl}phenyl)carbamoyl]benzoic acid]	–	–	126	414
